Data reported in patent US10577349B2 (Sanford Burnham Prebys Medical Discovery Institute, priority 2015, dated 2020).
Values joined by “and” are separate entries in the source; they are usually repeats but may differ in a detail not shown here. Identical values can stand only once. Like-named read-outs stand apart in the source and are kept apart here.

Tests used:
[1] = target: EmCV Cap-dependent translation; assay: In vitro translation assay, FF-EmCV-Ren construct, cap-dependent (FF luciferase); assay type: biochemical, rabbit reticulocyte lysates
Method in brief: (§1)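 Rabbit reticulocyte lysate with -Met/-Leu translation mixes pre-incubated with compound 1 h at room temperature, then 0.1 μg bicistronic RNA added and translated 2 h at 30° C. Dual-Glo read-out: FF signal reports cap-dependent, Ren signal IRES-driven translation. Counter assay adds compound after translation to flag luciferase interference.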

[2] = target: EmCV Cap-independent translation; assay: In vitro translation assay, FF-EmCV-Ren construct, cap-independent (Ren luciferase); assay type: biochemical, rabbit reticulocyte lysates
Method in brief: as §1

[3] = target: HCV cap-dependent translation; assay: In vitro translation assay, FF-HCV-Ren construct, cap-dependent (FF luciferase); assay type: biochemical, rabbit reticulocyte lysates
Method in brief: as §1

PAMPA Permeability = assay type: in vitro ADME
[4] = Blood chemistry following Compound 38 IP administration; assay type: in vivo; details: Compound 38 1 mg/kg IP, individual mice #4-#6
Excerpt: The growth of A375 tumors in immunodeficient mice subjected to either BRAFi alone or BRAFi combined with Compound 38 was monitored in vivo. Compound 38 toxicity in mice was monitored by liver function (Table 5).

[5] = tested on: E1A/RAS-transformed 4E-BP DKO MEFs; assay: Proliferation of E1A/Ras-transformed MEFs (BrdUrd incorporation); assay type: cell-based; details: 48 hours
Experimental: E1A/Ras-transformed WT or 4e-bp1/4e-bp2 DKO MEFs were treated with either Torin1 or Compound 38 at indicated concentrations and cell proliferation was measured 48 hours later with the aid of BrdUrd incorporation. Values were normalized to DMSO-treated triplicates. Error bars, SD (n=3).

## O=C(/C=C/c1cncc(F)c1)c1c(-c2ccccc2)c2cc(Cl)ccc2[nH]c1=O [Compound 38, 6-Chloro-3-[3-(5-fluoro-pyridin-3-yl)-acryloyl]-4-phenyl-1H-quinolin-2-one]
[1]
  IC50: 2 to 10 µM
[2]
  IC50: 2 to 10 µM
[3]
  IC50: 2 to 10 µM
PAMPA Permeability; Donor pH 5.0, Acceptor pH 7.4, read-out: PAMPA Permeability, Pe, Donor pH 5.0
  Papp: 1110 ×10⁻⁶ cm/s
PAMPA Permeability; Donor pH 6.2, Acceptor pH 7.4, read-out: PAMPA Permeability, Pe, Donor pH 6.2
  Papp: 1150 ×10⁻⁶ cm/s
PAMPA Permeability; pH 7.4, Donor pH 7.4, Acceptor pH 7.4, read-out: PAMPA Permeability, Pe, Donor pH 7.4
  Papp: 820 ×10⁻⁶ cm/s
[4]
  CRE (Kidney): <18 µmol/L
[4]; 1 mg/kg
  ALB (Liver): 32 g/L (2×) and 34 g/L
  ALP (Liver): 88 μ/L and 54 μ/L and 24 μ/L
  ALT (Liver): 126 μ/L and >1000 μ/L and 152 μ/L
  AMY (Pancreas): 701 μ/L and 811 μ/L and 1625 μ/L
  BUN (Kidney): 7.5 mmol/L and 9.9 mmol/L and 7.9 mmol/L
  CA (Electrolytes): 2.25 mmol/L and 2.1 mmol/L and 2.14 mmol/L
  GLOB (Liver): 10 g/L and 11 g/L (2×)
  GLU (General metabolism): 17.6 mmol/L and 13.8 mmol/L and 16.5 mmol/L
  K^+ (Electrolytes): 5.5 mmol/L and 8 mmol/L and 6.5 mmol/L
  Na^+ (Electrolytes): 137 mmol/L (2×) and 146 mmol/L
  PHOS (Electrolytes): 2.4 mmol/L and 2.27 mmol/L and 1.64 mmol/L
  TBIL (Liver): 5 μmol/L and 4 μmol/L (2×)
  TP (Liver): 42 g/L and 44 g/L and 43 g/L
[5]
  proliferation of E1A/RAS-transformed 4E-BP DKO MEFs: attenuated the proliferation
